Measurements from publication PMC9863751, “Specific Binding of the α-Component of the Lantibiotic Lichenicidin to the Peptidoglycan Precursor Lipid II Predetermines Its Antimicrobial Activity” (International Journal of Molecular Sciences, 2023).

Biological target: T1, Lchα (α-component of the lantibiotic lichenicidin) (Bacillus licheniformis, UniProt P86475)
T1 construct: gene lchA1; mature post-translationally modified lantibiotic, 32 residues (leader removed; N-terminal 2-oxobutyryl, Abu3-Cys7 ring A, four (methyl)lanthionine rings); native purification from culture supernatant, 15N-labelled, no tag
T1 sequence (P86475 43-74): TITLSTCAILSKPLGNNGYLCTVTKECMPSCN
Experiment: NMR titration ([…]-HSQC, Asn32 signal intensity)
Assay type: binding
Details: read-out: Kapp

With `CC(=O)N[C@H]1[C@H](O[C@H]2[C@H](O[C@H](C)C(=O)N[C@@H](C)C(=O)N[C@H](CCC(=O)N[C@@H](CCCCN)C(=O)N[C@H](C)C(=O)N[C@H](C)C(=O)O)C(=O)O)[C@@H](NC(C)=O)[C@@H](OP(=O)(O)OP(=O)(O)OC/C=C(/C)CC/C=C(/C)CC/C=C(/C)CC/C=C(/C)CC/C=C(/C)CC/C=C(/C)CC/C=C(/C)CC/C=C(/C)CC/C=C(\C)CC/C=C(\C)CCC=C(C)C)O[C@@H]2CO)O[C@H](CO)[C@@H](O)[C@@H]1O` [lipid II] the Kd was about 10 µM.
